Measurements: the supplement of paper PMC10307832

Key:
Test in all cases: relative viability (nuclei count vs DMSO), 5 days (fraction); higher = more cells survive
[1] = compound: CN(C)C(=N)NC(=N)N [Metformin] + COc1cc2c(Oc3ccc(NC(=O)C4(C(=O)Nc5ccc(F)cc5)CC4)cc3F)ccnc2cc1OCCCN1CCOCC1 [Foretinib] (partner 0.25 µM)
In short: (§1)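 Five library-drug doses in √10 steps were combined with a fixed anchor-drug dose, or a single drug was given alone, by pin tool to lung cancer cell lines in 1536-well plates the day after seeding. Nuclei were stained and counted after 5 days. Relative viability is the nuclei count in treated wells over that in vehicle wells, taken as the median of duplicate plates.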

[2] = compound: N#CC1(c2ccc(NC(=O)c3cccnc3NCc3ccncc3)cc2)CCCC1 [Apatinib] + Nc1ncn([C@H]2C[C@H](O)[C@@H](CO)O2)c(=O)n1 [Decitabine] (partner 2 µM)
In short: as §1

[3] = compound: N#CC1(c2ccc(NC(=O)c3cccnc3NCc3ccncc3)cc2)CCCC1 [Apatinib] + CC1(C)CCC(c2ccc(Cl)cc2)=C(CN2CCN(c3ccc(C(=O)NS(=O)(=O)c4ccc(N[C@H](CCN5CCOCC5)CSc5ccccc5)c(S(=O)(=O)C(F)(F)F)c4)cc3)CC2)C1 [Navitoclax] (partner 0.5 µM)
In short: as §1

[4] = compound: CN(C)C(=N)NC(=N)N [Metformin] + Nc1ncn([C@H]2C[C@H](O)[C@@H](CO)O2)c(=O)n1 [Decitabine] (partner 2 µM)
In short: as §1

| Cell Line | relative viability ([1]; first compound 10 µM) | relative viability ([1]; first compound 31.62 µM) | relative viability ([1]; first compound 100 µM) | relative viability ([1]; first compound 316.23 µM) | relative viability ([1]; first compound 1000 µM) | relative viability ([2]; first compound 0.08 µM) | relative viability ([2]; first compound 0.253 µM) | relative viability ([2]; first compound 0.8 µM) | relative viability ([2]; first compound 2.53 µM) | relative viability ([2]; first compound 8 µM) | relative viability ([3]; first compound 0.08 µM) | relative viability ([3]; first compound 0.253 µM) | relative viability ([3]; first compound 0.8 µM) | relative viability ([3]; first compound 2.53 µM) | relative viability ([3]; first compound 8 µM) | relative viability ([4]; first compound 31.62 µM) | relative viability ([4]; first compound 100 µM) | relative viability ([4]; first compound 316.23 µM) | relative viability ([4]; first compound 1000 µM) | relative viability ([4]; first compound 10 µM) |
| --- | --- | --- | --- | --- | --- | --- | --- | --- | --- | --- | --- | --- | --- | --- | --- | --- | --- | --- | --- | --- |
| HCC-78 | 0.752 | 0.674 | 0.894 | 0.662 | 0.79 | 0.7 | 0.694 | 0.692 | 0.701 | 0.913 | 0.884 | 0.631 | 0.821 | 0.58 | 0.648 | 0.605 | 0.768 | 0.779 | 0.658 | – |
| HCC-366 | 1.09 | 0.928 | 0.881 | 0.955 | 0.943 | 0.395 | 0.365 | 0.309 | 0.353 | 0.432 | 1.1 | 1.08 | 1.04 | 0.961 | 1.01 | 0.293 | 0.306 | 0.291 | 0.289 | 0.288 |
| HCC-827 | – | 0.899 | 0.974 | 0.807 | 0.889 | 0.345 | 0.335 | 0.363 | 0.322 | 0.327 | 1.07 | 1.06 | 0.956 | 0.998 | 0.781 | 0.315 | 0.312 | 0.322 | 0.364 | 0.321 |
| HOP-62 | 0.882 | 1.08 | 1.08 | 0.985 | 1 | 0.221 | 0.212 | 0.2 | 0.428 | 0.519 | 1.04 | 1.01 | 1.01 | 0.859 | 0.878 | 0.144 | 0.18 | 0.208 | 0.186 | 0.193 |
| IA-LM | 1.18 | 1.27 | 1.43 | 1.11 | 1.28 | – | – | – | – | – | 0.947 | 0.709 | 0.633 | 0.352 | 0.208 | – | – | – | – | – |
| LC-2-ad | – | 0.788 | 0.923 | 0.692 | 0.624 | 0.862 | 0.776 | 0.792 | 0.668 | 0.698 | 0.414 | 0.457 | 0.387 | 0.287 | 0.235 | 0.736 | 0.826 | 0.583 | 0.642 | – |
| LCLC-97TM1 | 0.912 | 0.808 | 0.875 | 0.895 | 1.02 | 0.268 | 0.244 | 0.237 | 0.185 | 0.228 | 0.485 | 0.401 | 0.369 | 0.397 | 0.18 | 0.203 | 0.202 | 0.21 | 0.29 | – |
| LCLC-103H | 0.823 | 1.09 | 0.881 | 0.781 | 0.923 | 0.792 | 0.739 | 0.687 | 0.726 | 0.744 | – | – | – | – | – | 0.738 | 0.714 | 0.714 | 0.788 | 0.72 |
| LK-2 | 1.72 | 1.93 | 1.79 | 1.28 | – | 0.299 | 0.298 | 0.273 | 0.21 | 0.273 | 0.879 | 0.857 | 0.885 | 0.769 | 0.634 | 0.398 | 0.33 | 0.294 | 0.444 | 0.298 |
| LOU-NH91 | 1.03 | 1.02 | 1.03 | 0.972 | 1.06 | 0.85 | 0.827 | 0.732 | 0.741 | 0.776 | 0.692 | 0.744 | 0.517 | 0.565 | 0.58 | 0.799 | 0.848 | 0.797 | 0.79 | 0.787 |
| NCI-H358 | 0.726 | 0.723 | 0.658 | 0.732 | 0.813 | 0.225 | 0.219 | 0.24 | 0.218 | 0.316 | – | – | – | – | – | 0.225 | 0.214 | 0.253 | 0.213 | 0.202 |
| NCI-H522 | – | – | – | – | – | 0.685 | 0.63 | 0.749 | 0.606 | 0.672 | – | – | – | – | – | 0.599 | 0.679 | 0.648 | 0.7 | 0.659 |
| NCI-H650 | 1.18 | 1.31 | 1.23 | 1.24 | 1.18 | 0.35 | 0.331 | 0.332 | 0.418 | 0.626 | – | – | – | – | – | 0.313 | 0.314 | 0.301 | 0.312 | 0.274 |
| NCI-H661 | 0.809 | 0.877 | 0.879 | 0.834 | 0.916 | 0.615 | 0.543 | 0.542 | 0.581 | 0.599 | – | – | – | – | – | 0.61 | 0.587 | 0.579 | 0.602 | 0.562 |
| NCI-H1299 | 1.09 | 1.12 | 1.14 | 1.11 | 1.13 | – | – | – | – | – | 1.06 | 1.05 | 1.03 | 1.05 | 0.937 | – | – | – | – | – |
| NCI-H1563 | 0.99 | 1.02 | 1.09 | 1.01 | 1.05 | – | – | – | – | – | – | – | – | – | – | – | – | – | – | – |
| NCI-H1648 | – | – | – | – | – | 0.66 | 0.502 | 0.479 | 0.428 | 0.508 | – | – | – | – | – | 0.512 | 0.555 | 0.535 | 0.656 | – |
| NCI-H1703 | 0.497 | 0.504 | 0.549 | 0.474 | 0.496 | – | – | – | – | – | 0.996 | 0.731 | 0.357 | 0.188 | 0.205 | – | – | – | – | – |
| NCI-H1792 | – | – | – | – | – | 0.596 | 0.55 | 0.544 | 0.591 | 0.609 | 0.572 | 0.596 | 0.569 | 0.559 | 0.592 | 0.428 | 0.482 | 0.386 | 0.496 | 0.449 |
| NCI-H2228 | 0.804 | 0.862 | 1.09 | 0.671 | 0.768 | – | – | – | – | – | 1.02 | 0.988 | 0.738 | 0.708 | 0.751 | – | – | – | – | – |
| NCI-H2342 | 0.972 | 1.15 | 1.07 | 1 | 1.21 | 0.704 | 0.767 | 0.709 | 0.799 | 0.791 | – | – | – | – | – | 0.812 | 0.708 | 0.714 | 0.693 | – |
| SW 900 | 0.919 | 0.884 | 0.736 | 0.846 | 0.882 | 0.417 | 0.479 | 0.447 | 0.562 | 0.652 | – | – | – | – | – | 0.389 | – | 0.412 | 0.492 | 0.41 |
